Like-named read-outs stand apart in the source and are kept apart here.
Columns and labels:
5‐HT1A receptor [1] = biological target: T1, 5‐HT1A receptor (Rattus norvegicus, UniProt P19327); experiment: 5‐HT1A receptor activation in the [35S]GTP‐γ‐S assay (hippocampal membranes); type: biochemical; conditions: [35S]GTPγS; for Emax: read-out: Emax (%) ± SEM, 5‐HT1A receptor G‐protein stimulation; for agonist activity for the 5‐HT1A receptor (classification in words): efficacy compared with 8‐OH‐DPAT
T1 construct: 80 μg of hippocampal membrane suspension (the 5‐HT1A assay); from tissue; host or cells: rat (Sprague-Dawley) hippocampus membranes
T1 sequence (P19327 1-422): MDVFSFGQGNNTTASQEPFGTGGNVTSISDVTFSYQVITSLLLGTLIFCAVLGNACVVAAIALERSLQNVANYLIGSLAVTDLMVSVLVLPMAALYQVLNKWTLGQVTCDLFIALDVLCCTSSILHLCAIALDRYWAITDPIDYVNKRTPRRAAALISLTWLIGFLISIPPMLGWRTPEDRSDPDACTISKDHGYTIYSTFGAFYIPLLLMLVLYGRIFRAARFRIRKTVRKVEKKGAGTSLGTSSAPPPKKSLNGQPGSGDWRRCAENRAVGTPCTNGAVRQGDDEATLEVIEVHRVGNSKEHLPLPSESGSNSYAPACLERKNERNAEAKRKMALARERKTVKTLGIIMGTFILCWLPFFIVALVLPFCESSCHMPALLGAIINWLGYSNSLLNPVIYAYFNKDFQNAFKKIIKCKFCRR
Method: Seven compound concentrations equally spaced on a log scale (10–4 M to 10–10 M) were incubated in duplicate with hippocampal membrane preparations (5μg per well) in assay buffer (50 mM Tris‐HCl, pH = 7.4, 1 mM EGTA, 3 mM MgCl2, 100 mM NaCl, and 30 μM GDP) and 0.08 nM [^35S]GTP‐γ‐S (specific activity: 1250 Ci mmole^−1, Revvity). Nonspecific binding was determined with 10μM of unlabeled GTP‐γ‐S. The final DMSO concentration in the assay was 5%. The reaction mixture was incubated for 90 min. at 30 °C on an orbital shaker set at 250 rpm. Next, the reaction mixture was deposited under vacuum with the FilterMate Harvester (Revvity, USA) onto Unifilter GF/C Plates (Revvity, MA, USA) presoaked with wash buffer (50 mM Tris‐HCl, pH = 7.4). The wells were then rapidly washed with 2 mL of wash buffer. Filter plates were dried overnight at room temperature. Once completely dry, 35 μl of MicroScint PS (Revvity, MA, USA) scintillation fluid was added to each well. Radioactivity was counted in a MicroBeta2 LumiJet scintillation counter (Revvity, MA, USA). Data were analyzed with GraphPad Prism 5.0 software (GraphPad Software, San Diego California USA, www.graphpad.com). The curves were fitted with three‐parameter non‐linear regression model.

5‐HT1A receptor [2] = biological target: T1, 5‐HT1A receptor; experiment: 5‐HT1A competition binding assay ([3H]8‐OH‐DPAT, hippocampal membranes); conditions: 1 nM [3H]8‐OH‐DPAT
Method: Sprague‐Dawley rats were sacrificed by isoflurane overdose. Brains were rapidly removed and placed on ice. Hippocampi (for the 5‐HT1A assay) and frontal cortices (for the 5‐HT2A and 5‐HT2C assays) were dissected on a Petri dish. The tissue from 10 rats was homogenized in 30 vol. homogenization buffer (50 mM Tris–HCl, […], 1 mM EDTA, 1 mM dithiothreitol) with a handheld Teflon‐glass homogenizer. The homogenate was centrifuged at 48,000 × g at 4 °C for 15 min. The pellet was suspended and homogenized in the homogenization buffer and incubated for 10 min. at 36 °C. The centrifugation and suspension steps were repeated twice. The final pellet was homogenized in 5 vol. 50 mM Tris–HCl, pH = 7.4 buffer and stored at −80 °C for no longer than 6 months. […] For the 5‐HT2C assay, compounds were incubated in duplicate with 5 nM [^3H]mesulergine (specific activity: 80.2 Ci mmol^−1, Revvity, MA, USA) for 60 min. at 36 °C in a 50 mM Tris‐HCl (pH 7.4) buffer, supplemented with 5 mM MgCl2, 140 mM NaCl, 1 mM DTT, 1 mM CaCl2, 10 μM pargyline and 160μg of the frontal cortex membrane suspension. Non‐specific binding was determined with 10μM serotonin. The final DMSO concentration in the assay was 5%. After incubation, the reaction mixture was deposited onto Unifilter GF/C plates (Revvity, MA, USA) presoaked in 0.4% PEI (or 0.4% PEI and 0.5% Triton X‐100 for the 5‐HT2C assay) for 1 h with the FilterMate‐96 Harvester (Revvity, MA, USA). Then, each well was washed with 2 mL of 50 mM Tris–HCl (pH 7.4) buffer to separate bound ligands from free and the plates were left to dry overnight. Then, 35μl of Microscint‐20 scintillation fluid (Revvity, MA, USA) was added to each filter well and left to equilibrate for 2h. Filter‐bound radioactivity was counted in a MicroBeta2 LumiJet scintillation counter (Revvity, MA, USA). Binding curves were fitted with one site non‐linear regression. Binding affinity (pKi and Ki) for each compound was calculated from the […] values with the Cheng‐Prusoff equation from two separate experiments.

5‐HT2A receptor = 5‐HT2A receptor (Rattus norvegicus, UniProt P14842); experiment: 5‐HT2A competition binding assay ([3H]ketanserin, frontal cortex membranes); parameters: from tissue; host or cells: rat (Sprague-Dawley) frontal cortex membranes; conditions: 1 nM [3H]ketanserin
Chain of 5‐HT2A receptor (P14842 whole entry): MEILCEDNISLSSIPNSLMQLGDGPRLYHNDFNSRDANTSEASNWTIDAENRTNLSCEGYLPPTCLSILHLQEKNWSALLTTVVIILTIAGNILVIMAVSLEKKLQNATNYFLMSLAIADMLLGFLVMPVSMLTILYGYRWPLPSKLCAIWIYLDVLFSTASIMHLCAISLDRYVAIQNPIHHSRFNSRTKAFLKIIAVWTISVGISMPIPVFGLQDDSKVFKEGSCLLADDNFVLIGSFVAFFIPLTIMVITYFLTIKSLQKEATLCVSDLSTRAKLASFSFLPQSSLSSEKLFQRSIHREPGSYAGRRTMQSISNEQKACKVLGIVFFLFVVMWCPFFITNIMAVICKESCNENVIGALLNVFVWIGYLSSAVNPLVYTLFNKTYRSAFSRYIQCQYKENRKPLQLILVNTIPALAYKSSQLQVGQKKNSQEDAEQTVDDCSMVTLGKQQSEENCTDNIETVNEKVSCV

[3] = rat hippocampal membranes, 95% CI in brackets, read-out: EC50 (95% CI, μM), 5‐HT1A receptor G‐protein stimulation
[4] = read-out: 5‐HT1A pKi (converted)
[5] = 95% CI in brackets, read-out: 5‐HT2A Ki (95% CI)
[6] = rat hippocampal membranes, read-out: pEC50, 5‐HT1A receptor G‐protein stimulation (converted)
[7] = 95% CI in brackets, read-out: 5‐HT1A Ki (95% CI)
[8] = read-out: 5‐HT2A pKi (converted)

| SMILES | EC50 (5‐HT1A receptor [1]; [3]) | Emax (5‐HT1A receptor [1]; rat hippocampal membranes) | agonist activity for the 5‐HT1A receptor (classification in words) (5‐HT1A receptor [1]) | Ki (5‐HT1A receptor [2]; [4]) | Ki (5‐HT2A receptor; [5]) | Emax (%) ± SEM, 5‐HT1A receptor G‐protein stimulation (5‐HT1A receptor [1]; rat hippocampal membranes) | EC50 (5‐HT1A receptor [1]; [6]) | Ki (5‐HT1A receptor [2]; [7]) | Ki (5‐HT2A receptor; [8]) |
| --- | --- | --- | --- | --- | --- | --- | --- | --- | --- |
| O=C(NCCCN1CCN(c2ccc(C3=NCCS3)cc2)CC1)c1ccncc1 [FG‐6, N‐(3‐(4‐(4‐(4,5‐dihydrothiazol‐2‐yl) phenyl) piperazin‐1‐yl) propyl) isonicotinamide] | 9.4 µM | 184 ± 11% | full agonists | 26.3 µM | 4.6 µM |  |  |  |  |
| O=C(NCCCN1CCN(c2ccc(C3=NCCS3)cc2)CC1)C1CC2C=CC1C2 (stereo not drawn) [FG‐18, Endo‐ N‐(3‐(4‐(4‐(4,5‐dihydrothiazol‐2‐yl)phenyl)piperazin‐1‐yl)propyl) bicyclo[2.2.1]hept‐5‐ene‐2‐carboxamide] | 8.8 µM |  |  | 20 µM | 2.73 µM | 144 ± 8.2% | 8.91 µM |  |  |
| O=C(NCCCN1CCN(c2ccccc2C2=NCCS2)CC1)c1ccncc1 [FG‐4, N‐(3‐(4‐(2‐(4,5‐dihydrothiazol‐2‐yl) phenyl) piperazin‐1‐yl) propyl) isonicotinamide] |  | 132 ± 14.9% |  |  | 4.7 µM |  | 50.1 µM | 1.54 µM |  |
| O=C(NCCCN1CCN(c2cccc(C3=NCCS3)c2)CC1)c1ccncc1 [FG‐5, N‐(3‐(4‐(3‐(4,5‐dihydrothiazol‐2‐yl) phenyl) piperazin‐1‐yl) propyl) isonicotinamide] | 18.2 µM | 185 ± 17.6% |  |  | 4.43 µM |  |  | 1.1 µM |  |
| O=C(NCCCN1CCN(c2ccccc2C2=NCCS2)CC1)c1ccccn1 [FG‐1, N‐(3‐(4‐(2‐(4,5‐dihydrothiazol‐2‐yl) phenyl) piperazin‐1‐yl) propyl) picolinamide] | 16.5 µM | 138 ± 11.5% |  |  | 3.13 µM |  | 20 µM | 2.35 µM |  |
| O=C(NCCCN1CCN(c2cccc(C3=NCCS3)c2)CC1)c1ccccn1 [FG‐2, N‐(3‐(4‐(3‐(4,5‐dihydrothiazol‐2‐yl) phenyl) piperazin‐1‐yl) propyl) picolinamide] | 125 µM | 136 ± 10.2% |  |  | 2.9 µM |  |  | 1.86 µM | 2.95 µM |
| O=C1C2C3C=CC(C3)C2C(=O)N1OCCCN1CCN(c2cccc(C3=NCCS3)c2)CC1 (stereo not shown) [FG‐8, 2‐(3‐(4‐(3‐(4,5‐dihydrothiazol‐2‐yl) phenyl) piperazin‐1‐yl) propoxy)‐3a,4,7,7a‐tetrahydro‐1H‐4,7‐methanoisoindole‐1,3(2H)‐dione] | 7.9 µM | 184 ± 6.6% | full agonists | 0.724 µM | 1.1 µM |  |  | 0.71 µM | 1.15 µM |
| O=C1C2C3C=CC(C3)C2C(=O)N1OCCCN1CCN(c2ccccc2C2=NCCS2)CC1 (stereo not shown) [FG‐7, 2‐(3‐(4‐(2‐(4,5‐dihydrothiazol‐2‐yl) phenyl) piperazin‐1‐yl) propoxy)‐3a,4,7,7a‐tetrahydro‐1 H‐4,7‐methanoisoindole‐1,3(2 H)‐dione] | 3.01 µM | 177 ± 3.3% | full agonists |  | 2.86 µM |  |  | 0.054 µM |  |

From PMC12321279, “Novel 4,5‐Dihydrothiazole‐Phenylpiperazine Derivatives: Synthesis, Docking Studies and Pharmacological Evaluation as Serotonergic Agents” (Chemmedchem, 2025)
